Test results as given in ChEMBL document CHEMBL4411324, “Comprehensive structure-activity-relationship of azaindoles as highly potent FLT3 inhibitors” (Bioorg Med Chem, 2019).
pIC50: −log10 of the molar value.

Key:
[1] = biological target: Receptor-type tyrosine-protein kinase FLT3 (Homo sapiens, UniProt P36888, ITD); assay: Inhibition of recombinant human N-terminal GST/His6-fused FLT3 ITD mutant (R571 to S993 residues) expressed in Sf9 insect cells assessed as residual activity using ULightTM-TK peptide as substrate incubated for 90 mins under dark condition by FRET assay
[2] = system: Receptor-type tyrosine-protein kinase FLT3 (Homo sapiens), P36888 [UNDEFINED MUTATION]; assay: Inhibition of recombinant human N-terminal GST/His6-fused FLT3 ITD mutant (R571 to S993 residues) expressed in Sf9 insect cells assessed as residual activity at 2 uM using ULightTM-TK peptide as substrate incubated for 90 mins under dark condition by FRET assay relative to control
[3] = Lipophilicity, log D of the compound at pH 7.4; format: physicochemical; details: buffer

Receptor-type tyrosine-protein kinase FLT3 (Homo sapiens), P36888 [UNDEFINED MUTATION], sequence (P36888 whole entry, looked up, stated change not applied, the tested form may be a part): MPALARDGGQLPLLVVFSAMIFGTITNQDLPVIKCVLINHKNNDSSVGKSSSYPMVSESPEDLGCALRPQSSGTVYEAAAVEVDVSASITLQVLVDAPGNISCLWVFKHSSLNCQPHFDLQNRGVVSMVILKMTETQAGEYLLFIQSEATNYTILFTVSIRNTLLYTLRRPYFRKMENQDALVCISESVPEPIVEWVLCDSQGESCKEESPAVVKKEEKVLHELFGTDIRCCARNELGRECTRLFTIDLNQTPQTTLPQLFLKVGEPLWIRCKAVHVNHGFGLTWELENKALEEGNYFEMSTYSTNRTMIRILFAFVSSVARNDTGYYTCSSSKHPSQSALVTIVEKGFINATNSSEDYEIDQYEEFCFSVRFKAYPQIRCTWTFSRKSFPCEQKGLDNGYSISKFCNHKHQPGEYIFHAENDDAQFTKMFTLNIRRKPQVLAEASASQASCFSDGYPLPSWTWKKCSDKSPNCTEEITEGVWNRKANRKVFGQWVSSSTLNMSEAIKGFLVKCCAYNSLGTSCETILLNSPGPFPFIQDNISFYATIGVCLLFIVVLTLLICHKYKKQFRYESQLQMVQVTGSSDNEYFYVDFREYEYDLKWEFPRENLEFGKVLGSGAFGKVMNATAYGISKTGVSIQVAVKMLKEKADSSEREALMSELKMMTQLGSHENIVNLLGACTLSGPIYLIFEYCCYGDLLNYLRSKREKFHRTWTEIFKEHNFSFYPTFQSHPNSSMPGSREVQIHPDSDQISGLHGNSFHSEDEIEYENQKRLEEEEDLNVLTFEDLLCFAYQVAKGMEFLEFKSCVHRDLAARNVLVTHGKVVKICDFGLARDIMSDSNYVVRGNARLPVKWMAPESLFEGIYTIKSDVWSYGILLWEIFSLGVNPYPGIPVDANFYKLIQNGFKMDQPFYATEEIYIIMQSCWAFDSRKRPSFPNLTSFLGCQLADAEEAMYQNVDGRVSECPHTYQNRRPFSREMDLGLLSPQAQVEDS
Receptor-type tyrosine-protein kinase FLT3, sequence (P36888 whole entry, looked up, stated change not applied, the tested form may be a part): as above

Compound	pIC50 [1]	other results
O=C(CCc1ccc(-c2cnc3[nH]ccc3c2)cc1)NCCNS(=O)(=O)c1ccc(Cl)c(Cl)c1	8.39	–
O=S(=O)(NCCNC/C=C/c1ccc(-c2cccnc2)cc1)c1cccc2cnccc12	8.02	Activity [2]: 13%; logD [3]: 1.5
CNC(=O)c1ccc(S(=O)(=O)NCCNC/C=C/c2ccc(-c3cccnc3)cc2)cn1	7.86	–
COc1ccc(S(=O)(=O)NCCNCCCc2ccc(-c3cnc4[nH]ccc4c3)cc2)cc1	8.62	–
O=C(CCc1ccc(-c2cnc3[nH]ccc3c2)cc1)NCCNS(=O)(=O)c1cc(Cl)cc(Cl)c1	8.16	–
O=S(=O)(NCCNC/C=C/c1ccc(-c2ccc3ccccc3c2)cc1)c1cccc2cnccc12	< 5.00	–
O=C(CCc1ccc(-c2cccnc2)cc1)NCCNS(=O)(=O)c1cccc2cnccc12	7.49	–
O=S(=O)(NCCNC/C=C/c1ccc(-c2cncnc2)cc1)c1cccc2cnccc12	–	Activity [2]: 13%
O=S(=O)(NCCOC/C=C/c1ccc(-c2cccnc2)cc1)c1cccc2cnccc12	8.08	–
O=S(=O)(NCCNCCCc1ccc(-c2cnc3[nH]ccc3c2)cc1)c1ccc(Cl)cc1	8.36	–
Nc1nccc2c(S(=O)(=O)NCCNC/C=C/c3ccc(-c4cccnc4)cc3)cccc12	7.62	–
CS(=O)(=O)NCCNC/C=C/c1ccc(-c2cccnc2)cc1	6.19	–
CN(C/C=C/c1ccc(-c2cccnc2)cc1)CCN(C)S(=O)(=O)c1cccc2cnccc12	6.90	–
Nc1ccc(-c2ccc(CCC(=O)NCCNS(=O)(=O)c3cccc4cnccc34)cc2)cn1	7.63	–
O=S(=O)(NCCNC/C=C/c1ccc(-c2cnc3ccccc3c2)cc1)c1cccc2cnccc12	–	Activity [2]: 9%
O=C1NCc2c1cccc2S(=O)(=O)NCCNC/C=C/c1ccc(-c2cccnc2)cc1	7.70	–
O=S(=O)(NCCNCCCc1ccc(-c2cnc3[nH]ccc3c2)cc1)c1cccc2cnccc12	8.78	–
O=S(=O)(NCCNC/C=C/c1ccc(-c2cn[nH]c2)cc1)c1cccc2cnccc12	–	Activity [2]: 14%
O=S(=O)(NCCCCCCc1ccc(-c2cccnc2)cc1)c1cccc2cnccc12	6.77	–
O=S(=O)(NCCNCCCc1ccc(-c2cccnc2)cc1)c1cccc2cnccc12	8.05	–
Nc1ccccc1S(=O)(=O)NCCNC/C=C/c1ccc(-c2cccnc2)cc1	7.57	–
O=C1NCc2cc(S(=O)(=O)NCCNC/C=C/c3ccc(-c4cccnc4)cc3)ccc21	7.74	–
O=C(CCc1ccc(-c2cnc3[nH]ccc3c2)cc1)NCCNS(=O)(=O)c1ccccc1	9.49	–
Nc1cc2c(S(=O)(=O)NCCNC/C=C/c3ccc(-c4cccnc4)cc3)cccc2cn1	7.71	–
O=S(=O)(NCCNCc1ccc2cc(-c3cccnc3)ccc2c1)c1cccc2cnccc12	6.25	–

Continued, in another order:

pIC50 [1]	Compound	other results
8.74	COc1ccc(S(=O)(=O)NCCNC(=O)CCc2ccc(-c3cnc4[nH]ccc4c3)cc2)cc1	–
6.82	Nc1ncccc1-c1ccc(CCC(=O)NCCNS(=O)(=O)c2cccc3cnccc23)cc1	–
8.69	Cc1ccc(S(=O)(=O)NCCNCCCc2ccc(-c3cnc4[nH]ccc4c3)cc2)cc1	–
8.67	Cc1ccc(S(=O)(=O)NCCNC(=O)CCc2ccc(-c3cnc4[nH]ccc4c3)cc2)cc1	–
8.88	O=S(=O)(NCCNCCCc1ccc(-c2cnc3[nH]ccc3c2)cc1)c1ccccc1	–
7.32	O=C1NCc2ccc(S(=O)(=O)NCCNC/C=C/c3ccc(-c4cccnc4)cc3)cc21	–
6.57	O=S(=O)(NCCNCCc1ccc(-c2cccnc2)cc1)c1cccc2cnccc12	–
< 5.00	O=S(=O)(NCCNC/C=C/c1ccc(-c2ccccc2)cc1)c1cccc2cnccc12	–
7.32	CN(CCNCCCc1ccc(-c2cccnc2)cc1)S(=O)(=O)c1cccc2cnccc12	–
9.32	O=C(CCc1ccc(-c2cnc3[nH]ccc3c2)cc1)NCCNS(=O)(=O)c1ccccc1Cl	–
8.07	O=[N+]([O-])c1ccccc1S(=O)(=O)NCCNC/C=C/c1ccc(-c2cccnc2)cc1	–
8.72	O=C(CCc1ccc(-c2cnc3[nH]ccc3c2)cc1)NCCNS(=O)(=O)c1cccc(Cl)c1	–
8.62	O=C(CCc1ccc(-c2cnc3[nH]ccc3c2)cc1)NCCNS(=O)(=O)c1ccc(Cl)cc1	–
6.74	CN(CCNC/C=C/c1ccc(-c2cccnc2)cc1)S(=O)(=O)c1cccc2cnccc12	–
7.21	O=S(=O)(NCCNC/C=C/c1ccc(-c2cccnc2)cc1)c1cccc2ccccc12	–
8.01	O=S(=O)(NCCNC/C=C/c1ccc(-c2cccnc2)cc1)c1ccc2[nH]ncc2c1	–
7.41	O=S(=O)(NCCOCCCc1ccc(-c2cccnc2)cc1)c1cccc2cnccc12	–
6.87	CN(C/C=C/c1ccc(-c2cccnc2)cc1)CCNS(=O)(=O)c1cccc2cnccc12	–
9.39	O=C(CCc1ccc(-c2cnc3[nH]ccc3c2)cc1)NCCNS(=O)(=O)c1ccc(F)cc1	–
< 5.00	CNC(=O)c1ccc(-c2ccc(CCC(=O)NCCNS(=O)(=O)c3cccc4cnccc34)cc2)cn1	–
7.77	O=S(=O)(NCCNC/C=C/c1ccc(-c2cccnc2)cc1)c1ccc2cn[nH]c2c1	–
6.80	O=S(=O)(NCCNCc1ccc(-c2cccnc2)cc1)c1cccc2cnccc12	–
8.37	O=C(CCc1ccc(-c2cnc3[nH]ccc3c2)cc1)NCCNS(=O)(=O)c1cccc(C(F)(F)F)c1	–
8.87	O=C(CCc1ccc(-c2cnc3[nH]ccc3c2)cc1)NCCNS(=O)(=O)c1cccc2cnccc12	–
< 5.00	O=C(NCCNC/C=C/c1ccc(-c2cccnc2)cc1)c1cccc2cnccc12	–
8.13	O=S(=O)(NCCNCCCc1ccc(-c2cnc3[nH]ccc3c2)cc1)c1ccc(Cl)c(Cl)c1	–
< 5.00	CNC(=O)c1ncccc1-c1ccc(CCC(=O)NCCNS(=O)(=O)c2cccc3cnccc23)cc1	–
